According to PubChem BioAssay AID1996:
≈ marks a conversion by molar mass, not a printed value.

conditions: buffer; pH 7.4; 200.0 µM

Row | Structure (SMILES) | solubility kinetic [µg/mL]
1 | CC(=O)c1cccc(NC(=O)CCC(=O)c2ccc(F)cc2)c1 | 3.8 (≈ 12.1 µM)
2 | CN(C)S(=O)(=O)c1cccc(C(=O)c2nccn2C)c1 | 41.5 (≈ 141 µM)
3 | COc1ccc(C2C(C#N)=C(C)NC(C)=C2C#N)c(OC)c1 | 4.6 (≈ 15.6 µM)
4 | COc1cc(OC)cc(C(=O)OCC(=O)N2CCCC2)c1 | > 44
5 | COc1ccc(C(CC(=O)O)N2C(=O)CCC2=O)cc1 (stereo not given) | > 41.6
6 | CC(=O)Nc1ccc(NC(=O)C(C)OC(=O)[C@@H]2CCCN2C(=O)c2cccs2)cc1 (stereo not given in full) | > 64.4
7 | O=C(c1cc(-c2ccncc2)nc2ccccc12)N1CCN(Cc2ccccc2)CC1 | > 61.3
8 | COc1ccc(S(=O)(=O)N(C)CC(=O)N2CCCCCC2)cc1 | > 51.1
9 | CCOC(=O)C(=CNc1cc(C)ccc1-n1cccc1)C(=O)OCC | 0.7 (≈ 2.04 µM)
10 | CC(C)=CC(=O)OCC(=O)Nc1cc(C)cc(C)c1 | 3.7 (≈ 14.2 µM)
11 | Cc1c(C(=O)NCc2ccco2)oc2c(F)cccc12 | 8.1 (≈ 29.6 µM)
12 | Cc1[nH]c(=S)c(C#N)c(-c2ccco2)c1C(=O)N(C)C | > 43.1
13 | CC(=O)N1CCN(c2ncnc3ccccc23)CC1 | > 38.4
14 | Cc1ccc2c(COC(=O)C3CSC4(C)CCC(=O)N34)cc(=O)oc2c1C (stereo not given) | 38.4 (≈ 99.1 µM)
15 | O=C(/C=C/c1cccc(C(F)(F)F)c1)N1CCN(c2ccccn2)CC1 | 4 (≈ 11.1 µM)
16 | CC(C)Cc1ccc(C(=O)NCCOc2ccccc2)o1 | 29.2 (≈ 102 µM)
17 | O=c1[nH]c(N2CCCCC2)nc2ncn(Cc3ccccc3)c12 | 33.3 (≈ 108 µM)
18 | COc1ccccc1C(=O)OCC(=O)NC(C)CCc1ccccc1 (stereo not given) | > 51.2
19 | CCc1cccc(C)c1NC(=O)CC(C)(C)CC(=O)O | > 41.6

Row | Structure (SMILES) | solubility kinetic [µg/mL]
20 | Cc1cc(C)c(S(=O)(=O)Nc2ncccc2C)c(C)c1 | 2.1 (≈ 7.23 µM)
21 | O=[N+]([O-])c1cccc(P(=O)(O)c2cccc([N+](=O)[O-])c2)c1 | > 46.2
22 | Cc1nc2oc3ccc(Cl)cc3c(=O)c2cc1C(=O)O | > 43.5
23 | O=C(Cn1cc(C(F)(F)F)ccc1=O)Nc1ccccc1 | 10 (≈ 33.8 µM)
24 | Cl.Clc1ccccc1CNCc1ccncc1 | 38.9
25 | COc1cc(OC)cc(C(=O)NC(C(=O)N2CCC2)C(C)C)c1 (stereo not given) | > 48.1
26 | Cc1ccc(C)c(CN2CCN(c3ncccn3)CC2)c1 | 17.4 (≈ 61.6 µM)
27 | CCOc1ccccc1N1C(=O)CC(=O)NC1=O | > 37.2
28 | CN(C(=O)CO/N=C/c1ccc(Cl)cc1)c1ccccc1 | 44.6 (≈ 147 µM)
29 | Cc1ccc(C(=O)Nc2cccnc2)cc1Cl | 35.6 (≈ 144 µM)
30 | Fc1ccc(CNCCc2c[nH]c3ccccc23)cc1 | > 40.2
31 | O=C(O)COCC(=O)Nc1cc(C(F)(F)F)cc(C(F)(F)F)c1 | > 51.8
32 | CCCC(C(=O)O)n1c(O)c(C=C2N=c3ccccc3=N2)sc1=S (stereo not given) | > 54.2
33 | O=S(=O)(c1ccccc1)c1cnc(-c2ccccc2)nc1N1CCCC1 | < 0.3
34 | O=S(=O)(c1ccc(Cl)cc1)N1CCCC1c1cccnc1 (stereo not given) | > 48.4
35 | O=C(NC(=S)Nc1ccccc1Br)C1CC1 | 41.7 (≈ 139 µM)
36 | Cc1cccc(NC(=O)Nc2cccc3ccccc23)c1 | < 0.3
37 | COc1ccc(CCN(C)Cc2cccc3ccccc23)cc1OC | 37.1 (≈ 111 µM)

The next lines start with the values.

Row | solubility kinetic [µg/mL] | Structure (SMILES)
38 | 11.3 (≈ 34 µM) | COc1ccc(CN2CCc3ccccc3C2)cc1Br
39 | > 45.5 | CCOc1ccc(CNCCCSc2ncccn2)cc1
40 | 0.3 (≈ 0.983 µM) | OCCNc1nc(-c2ccccc2)nc2c1oc1ccccc12
41 | 23.5 (≈ 72.4 µM) | COc1ccc(C(=O)NCc2ccc3[nH]c(C)cc3c2)cc1OC
42 | 1 (≈ 3.21 µM) | COc1ccc(C(=O)Nc2cccc3c2CCCC3)cc1OC
43 | 8.7 (≈ 21.4 µM) | CC1CCCC(NC(=O)COC(=O)[C@@H](NC(=O)c2ccc(F)cc2)C(C)C)C1C (stereo not given in full)
44 | > 43.1 | CN(C)C(=O)CN1C(=O)NC2(CCc3ccccc32)C1=O (stereo not given)
45 | 2.5 (≈ 7.98 µM) | Cc1cc(C)c(C)c(OCC(=O)O/N=C(\N)c2cccnc2)c1
46 | 28.8 (≈ 120 µM) | Cn1ccnc1SCC(=O)NC1CCCC1
47 | 1.1 (≈ 3.57 µM) | COc1ccc([N+](=O)[O-])cc1NC(=O)COC(=O)C=C(C)C
48 | < 0.7 | CCOC(=O)c1cc2cc(OCc3ccccc3)ccc2nc1C
49 | > 44 | COc1ccc(CCNC(=O)[C@@H](NC(N)=O)C(C)C)cc1
50 | 8.6 (≈ 24.4 µM) | Cc1ccc(NC(=O)CCC(=O)c2cccs2)c(Br)c1
51 | > 47.5 | O=C(O)c1cc(-c2ccccc2Cl)n(-c2ccc(F)cc2)n1
52 | 9.4 (≈ 28.4 µM) | CC1Cc2ccccc2N1Cc1cccc(S(=O)(=O)N(C)C)c1 (stereo not given)
53 | > 40.5 | CN1CCN(C(=O)c2cc3ccccc3cc2O)CC1
54 | 1.7 (≈ 5.8 µM) | COc1cccc2cc(-c3nc4ccccc4o3)c(=O)oc12
55 | 44.6 (≈ 137 µM) | CN1CCc2c(sc3c2C(=O)NC(/C=C\c2ccccc2)N3)C1 (stereo not given)
56 | < 0.3 | O=C(CCc1c[nH]c2ccccc12)OCc1cccc([N+](=O)[O-])c1
57 | 1.3 (≈ 4.22 µM) | CCOc1ccc(NC(=O)c2cc(=O)[nH]c3ccccc23)cc1
58 | 28.6 (≈ 122 µM) | CC1CC(C)CN(c2ccc([N+](=O)[O-])nc2)C1 (stereo not given)
59 | 34.8 (≈ 100 µM) | Nc1ccc(C(=O)Nc2cccc(NC(=O)c3ccc(N)cc3)c2)cc1
60 | > 42.1 | Cn1ncc([N+](=O)[O-])c1C(=O)Nc1ccccc1Cl
